Experimental data reported in ChEMBL document CHEMBL3046389, “Synthesis and biological evaluation of novel hydroquinone dimethyl ethers as potential anticancer and antimicrobial agents” (2013).
Converted amounts (≈) assume the structure as drawn.

How the values were obtained:
Assay type in all cases: functional
K562 [1] = test: Anticancer activity against Homo sapiens (human) K562 cells after 48 hr by SRB assay; details: K562, 48 h; for CC50: read-out: LC50 (the source's name)
MDA-MB-468 = test: Growth inhibition of Homo sapiens (human) MDA-MB-468 cells at 10 uM after 48 hr by SRB assay; details: MDA-MB-468, 48 h, read-out: GI
T47D = test: Growth inhibition of Homo sapiens (human) T47D cells at 10 uM after 48 hr by SRB assay; details: read-out: GI
TK-10 = test: Growth inhibition of Homo sapiens (human) TK10 cells at 10 uM after 48 hr by SRB assay; details: TK-10, 48 h, read-out: GI
Candida albicans = test: Antimicrobial activity against Candida albicans DSM 70014 after 48 hr by two-fold serial broth dilution method; details: DSM 70014, 48 h
Pseudomonas aeruginosa = test: Antimicrobial activity against Pseudomonas aeruginosa ATCC 10145 after 48 hr by two-fold serial broth dilution method; details: ATCC 10145, 48 h
U-251 [2] = test: Anticancer activity against Homo sapiens (human) U251 cells after 48 hr by SRB assay; details: U-251, 48 h; for CC50: read-out: LC50 (the source's name)
SF-295 = test: Anticancer activity against Homo sapiens (human) SF295 cells after 48 hr by SRB assay; details: SF-295, 48 h; for CC50: read-out: LC50 (the source's name)
SF-268 = test: Anticancer activity against Homo sapiens (human) SF268 cells after 48 hr by SRB assay; details: SF-268, 48 h; for CC50: read-out: LC50 (the source's name)
HT-29 [3] = test: Anticancer activity against Homo sapiens (human) HT-29 cells after 48 hr by SRB assay; details: HT-29, 48 h; for CC50: read-out: LC50 (the source's name)
COLO 205 = test: Anticancer activity against Homo sapiens (human) COLO205 cells after 48 hr by SRB assay; details: COLO 205, 48 h; for CC50: read-out: LC50 (the source's name)
NCI-H23 = test: Anticancer activity against Homo sapiens (human) NCI-H23 cells after 48 hr by SRB assay; details: NCI-H23, 48 h; for CC50: read-out: LC50 (the source's name)
HOP-92 = test: Anticancer activity against Homo sapiens (human) HOP92 cells after 48 hr by SRB assay; details: HOP-92, 48 h; for CC50: read-out: LC50 (the source's name)
EKVX = test: Anticancer activity against Homo sapiens (human) EKVX cells after 48 hr by SRB assay; details: for CC50: read-out: LC50 (the source's name)
K562 [4] = test: Growth inhibition of Homo sapiens (human) K562 cells at 10 uM after 48 hr by SRB assay; details: K562, 48 h, read-out: GI
BT-549 = test: Anticancer activity against Homo sapiens (human) BT549 cells after 48 hr by SRB assay; details: BT-549, 48 h; for CC50: read-out: LC50 (the source's name)
MDA-MB-231 = test: Anticancer activity against Homo sapiens (human) MDA-MB-231/ATCC cells after 48 hr by SRB assay; details: MDA-MB-231, 48 h; for CC50: read-out: LC50 (the source's name)
ACHN [5] = test: Anticancer activity against Homo sapiens (human) ACHN cells after 48 hr by SRB assay; details: for CC50: read-out: LC50 (the source's name)
A498 = test: Anticancer activity against Homo sapiens (human) A498 cells after 48 hr by SRB assay; details: A498, 48 h
ACHN [6] = test: Growth inhibition of Homo sapiens (human) ACHN cells at 10 uM after 48 hr by SRB assay; details: read-out: GI
SK-OV-3 = test: Anticancer activity against Homo sapiens (human) SKOV3 cells after 48 hr by SRB assay; details: SK-OV-3, 48 h
SK-MEL-28 = test: Anticancer activity against Homo sapiens (human) SK-MEL-28 cells after 48 hr by SRB assay; details: SK-MEL-28, 48 h
Bacillus subtilis = test: Antimicrobial activity against Bacillus subtilis ATCC 6633 after 48 hr by two-fold serial broth dilution method; details: ATCC 6633, 48 h
OVCAR-3 = test: Growth inhibition of Homo sapiens (human) OVCAR3 cells at 10 uM after 48 hr by SRB assay; details: OVCAR-3, 48 h, read-out: GI
UACC-62 = test: Growth inhibition of Homo sapiens (human) UACC62 cells at 10 uM after 48 hr by SRB assay; details: UACC-62, 48 h, read-out: GI
MDA-MB-435 = test: Growth inhibition of Homo sapiens (human) MDA-MB-435 cells at 10 uM after 48 hr by SRB assay; details: MDA-MB-435, 48 h, read-out: GI
M14 = test: Growth inhibition of Homo sapiens (human) M14 cells at 10 uM after 48 hr by SRB assay; details: M14, 48 h, read-out: GI
U-251 [7] = test: Growth inhibition of Homo sapiens (human) U251 cells at 10 uM after 48 hr by SRB assay; details: U-251, 48 h, read-out: GI
SNB-75 = test: Growth inhibition of Homo sapiens (human) SNB75 cells at 10 uM after 48 hr by SRB assay; details: SNB-75, 48 h, read-out: GI
SW-620 = test: Growth inhibition of Homo sapiens (human) SW620 cells at 10 uM after 48 hr by SRB assay; details: SW-620, 48 h, read-out: GI
HT-29 [8] = test: Growth inhibition of Homo sapiens (human) HT-29 cells at 10 uM after 48 hr by SRB assay; details: HT-29, 48 h, read-out: GI
HCT-15 = test: Growth inhibition of Homo sapiens (human) HCT15 cells at 10 uM after 48 hr by SRB assay; details: HCT-15, 48 h, read-out: GI
DU-145 = test: Anticancer activity against Homo sapiens (human) DU145 cells after 48 hr by SRB assay; details: DU-145, 48 h

COc1ccc(OC)c(/C=C/C(=O)N/N=C/c2ccccc2)c1
GI50 (K562 [1]): 0.488 µM | TGI (K562 [1]): > 100 µM | CC50 (K562 [1]): > 100 µM | inhibition of growth at 10 µM (MDA-MB-468): 71.9% | inhibition of growth at 10 µM (T47D): 60.3% | inhibition of growth at 10 µM (TK-10): 43.3% | MFC (Candida albicans): 100 µg/mL (≈ 322 µM) | MIC (Candida albicans): 100 µg/mL (≈ 322 µM) | MBC (Pseudomonas aeruginosa): 100 µg/mL (≈ 322 µM) | MIC (Pseudomonas aeruginosa): 50 µg/mL (≈ 161 µM) | GI50 (U-251 [2]): 3.68 µM | TGI (U-251 [2]): > 100 µM | CC50 (U-251 [2]): > 100 µM | GI50 (SF-295): 1 µM | TGI (SF-295): 11.1 µM | CC50 (SF-295): > 100 µM | GI50 (SF-268): 7.56 µM | TGI (SF-268): > 100 µM | CC50 (SF-268): > 100 µM | GI50 (HT-29 [3]): 2.1 µM | TGI (HT-29 [3]): > 100 µM | CC50 (HT-29 [3]): > 100 µM | GI50 (COLO 205): 4.8 µM | TGI (COLO 205): 35.1 µM | CC50 (COLO 205): > 100 µM | GI50 (NCI-H23): 5.4 µM | TGI (NCI-H23): 87 µM | CC50 (NCI-H23): > 100 µM | GI50 (HOP-92): 1.56 µM | TGI (HOP-92): 13.3 µM | CC50 (HOP-92): > 100 µM | GI50 (EKVX): 1.59 µM | TGI (EKVX): 59.5 µM | CC50 (EKVX): > 100 µM | inhibition of growth at 10 µM (K562 [4]): 78.8% | GI50 (BT-549): 4.05 µM | TGI (BT-549): 90.4 µM | CC50 (BT-549): > 100 µM | GI50 (MDA-MB-231): 7.24 µM | TGI (MDA-MB-231): > 100 µM | CC50 (MDA-MB-231): > 100 µM | GI50 (ACHN [5]): 9.66 µM | TGI (ACHN [5]): > 100 µM | CC50 (ACHN [5]): > 100 µM | GI50 (A498): 12 µM | LC50 (A498): > 100 µM | TGI (A498): > 100 µM | inhibition of growth at 10 µM (ACHN [6]): 37.2% | GI50 (SK-OV-3): 12 µM | LC50 (SK-OV-3): > 100 µM | TGI (SK-OV-3): > 100 µM | GI50 (SK-MEL-28): 8.89 µM | LC50 (concentration killing 50% of cells) (SK-MEL-28): > 100 µM | TGI (SK-MEL-28): > 100 µM | MBC (Bacillus subtilis): 100 µg/mL (≈ 322 µM) | MIC (Bacillus subtilis): 50 µg/mL (≈ 161 µM) | inhibition of growth at 10 µM (OVCAR-3): 94% | inhibition of growth at 10 µM (UACC-62): 39% | inhibition of growth at 10 µM (MDA-MB-435): 108% | inhibition of growth at 10 µM (M14): 72.2% | inhibition of growth at 10 µM (U-251 [7]): 56.5% | inhibition of growth at 10 µM (SNB-75): 58.9% | inhibition of growth at 10 µM (SW-620): 71.3% | inhibition of growth at 10 µM (HT-29 [8]): 79.3% | inhibition of growth at 10 µM (HCT-15): 58%

COc1ccc(OC)c(/C=C/c2nnc(S)n2-c2ccc(Cl)cc2)c1
GI50 (K562 [1]): 4.95 µM | TGI (K562 [1]): > 100 µM | CC50 (K562 [1]): > 100 µM | inhibition of growth at 10 µM (MDA-MB-468): 61.2% | MFC (Candida albicans): 100 µg/mL (≈ 267 µM) | MIC (Candida albicans): 100 µg/mL (≈ 267 µM) | MBC (Pseudomonas aeruginosa): 100 µg/mL (≈ 267 µM) | MIC (Pseudomonas aeruginosa): 50 µg/mL (≈ 134 µM) | GI50 (U-251 [2]): 6.88 µM | TGI (U-251 [2]): > 100 µM | CC50 (U-251 [2]): > 100 µM | GI50 (SF-295): 4.16 µM | TGI (SF-295): > 100 µM | CC50 (SF-295): > 100 µM | GI50 (SF-268): 17.5 µM | TGI (SF-268): > 100 µM | CC50 (SF-268): > 100 µM | GI50 (HT-29 [3]): 3.67 µM | TGI (HT-29 [3]): > 100 µM | CC50 (HT-29 [3]): > 100 µM | GI50 (COLO 205): 12.4 µM | TGI (COLO 205): 68.4 µM | CC50 (COLO 205): > 100 µM | GI50 (NCI-H23): 5.88 µM | TGI (NCI-H23): > 100 µM | CC50 (NCI-H23): > 100 µM | GI50 (HOP-92): 3.56 µM | TGI (HOP-92): > 100 µM | CC50 (HOP-92): > 100 µM | GI50 (EKVX): 30 µM | TGI (EKVX): > 100 µM | CC50 (EKVX): > 100 µM | inhibition of growth at 10 µM (K562 [4]): 77.6% | GI50 (BT-549): 9.38 µM | TGI (BT-549): > 100 µM | CC50 (BT-549): > 100 µM | GI50 (MDA-MB-231): 14.5 µM | TGI (MDA-MB-231): > 100 µM | CC50 (MDA-MB-231): > 100 µM | GI50 (DU-145): 19.1 µM | TGI (DU-145): > 100 µM | CC50 (DU-145; read-out: LC50 (the source's name)): > 100 µM | GI50 (ACHN [5]): 23.8 µM | TGI (ACHN [5]): > 100 µM | CC50 (ACHN [5]): > 100 µM | GI50 (A498): 6.66 µM | LC50 (A498): > 100 µM | TGI (A498): > 100 µM | GI50 (SK-OV-3): 9.4 µM | LC50 (SK-OV-3): > 100 µM | TGI (SK-OV-3): > 100 µM | GI50 (SK-MEL-28): 11.1 µM | LC50 (concentration killing 50% of cells) (SK-MEL-28): > 100 µM | TGI (SK-MEL-28): > 100 µM | MBC (Bacillus subtilis): 100 µg/mL (≈ 267 µM) | MIC (Bacillus subtilis): 100 µg/mL (≈ 267 µM) | inhibition of growth at 10 µM (OVCAR-3): 70.6% | inhibition of growth at 10 µM (UACC-62): 57.2% | inhibition of growth at 10 µM (MDA-MB-435): 110% | inhibition of growth at 10 µM (M14): 69% | inhibition of growth at 10 µM (U-251 [7]): 46.7% | inhibition of growth at 10 µM (SNB-75): 57.5% | inhibition of growth at 10 µM (SW-620): 49.6% | inhibition of growth at 10 µM (HT-29 [8]): 34.6% | inhibition of growth at 10 µM (HCT-15): 58.8%
